Experiments:
[1] = Example 1: body weight and feed efficiency of piglets treated before weaning; type: in vivo; details: for improvement of (average) body weight: gilts (female pigs), intramuscular; for improvement of (average) body weight / higher body weight relative to control animals: P<0.01; for higher body weight than the controls at day 35 of the study: P<0.05; for higher body weight relative to control animals: MET fed orally one week before and 24 hours before weaning
Excerpt: (§1) In a study, a total of 64 piglets (32 gilts [females] and 32 barrows [castrated males]) with initial body weight (BW) of 4.8±0.7 Kg were assigned to four treatments. Treatments were in a 4×2 factorial arrangement with a completely randomized design with two main factors: (I) control (Con), two levels of cortisol agonist (Dexamethasone; DEX; subdivided into 2 dosage levels: DEXA and DEXB), or cortisol antagonist (Metyrapone; MET), and (II) gender (gilt vs. barrow). See Table at FIG. 9, for a summary of the list of the treatments, drug dosage, and number of the animals per treatment. Dexamethasone was injected intramuscular at dosages shown, while Metyrapone was mixed with applesauce and fed to the animals with a syringe. The study lasted for 5 weeks. It began one week before weaning (14-day old piglets), and continued 4 weeks after the weaning. Pigs were weaned at the age of 21-days. Piglets received the treatments either orally via diet or by intra-muscular injection one week before and again 24 hours before weaning. Blood samples were collected by venipuncture of the jugular vein on day 14, 20, 21, 22, 23, 24, 26, 28, and 35 of age. Serum cortisol was determined using a commercial kit. Feed intake, average daily gain, feed efficiency, and mortality/morbidity was determined. Body weights (body mass) of the animals were measured on a daily basis for a week after weaning, and then on a weekly basis until the end of the study. See, FIGS. 2 and 3.

[2] = Example 2: body mass, daily gain, feed intake and gain-to-feed of weaned gilts; type: in vivo, piglets; details: weaned pigs; 0.2 mg/kg intramuscular
Description: In this test, eighteen gilts (of commercially relevant genetics) were weaned at 23±2 days of age. These were housed in floor pens (3 pigs per pen), and assigned to 3 treatments: (1) unweaned suckling that received saline but no cortisol agonist (UWS), (2) weaning that received only saline (WS), and (3) weaning that received the cortisol agonist (WC). The piglets of Group (3) received a cortisol agonist (0.2 mg dexamethasone per kg of body mass) via intramuscular injection on the day before commencing weaning, and day 3 post-weaning. Those of Groups (1) and (2) received instead only a saline solution intra-muscular injection at the same time intervals. Body mass (BW) was monitored daily, and average daily mass gain (ADG) and mass of feed intake (ADFI) were measured and/or estimated for the course of the study. […] Data was analyzed using mixed procedures in SAS (PROC MIXED). Repeated measure analysis of variance was used for the parameters that were measured over time.

[3] = Example 1: serum cortisol in piglet blood samples (commercial kit); type: in vivo, piglets; details: 24 h after weaning; P>0.05
Excerpt: as §1, with “Blood samples were collected by venipuncture of the jugular vein on day 14, 20, 21, 22, 23, 24, 26, 28, and 35 of age.” left out, “See, FIGS. 2 and 3.” left out

Structure (SMILES) | effect on body weight ([1]; barrows, anti-inflammatory dose, P>0.05) | improvement of (average) body weight ([1]; DEXA dose (anti-inflammatory)) | improvement of (average) body weight ([1]; DEXB dose (immunosuppressive)) | improvement of (average) body weight ([1]; DEXB dose (immunosuppressive), listed as dexamethasone) | higher body weight than the controls at day 35 of the study ([1]; gilts, DEXA dose, day 35) | higher body weight than the controls at day 35 of the study ([1]; gilts, DEXB dose, day 35) | effect on ADFI (mass of feed intake) [2] | effect on ADG (average daily mass gain) [2] | increase of average body weight of the piglets ([1]; all piglets, average over the course of the study) | higher body weight relative to control animals ([1]; barrows) | effect on body weight of piglets at day 35 of the study ([1]; day 35) | higher body weight relative to control animals ([1]; gilts) | effect on serum cortisol levels [3]
C[C@@H]1C[C@H]2[C@@H]3CCC4=CC(=O)C=C[C@]4(C)[C@@]3(F)[C@@H](O)C[C@]2(C)[C@@]1(O)C(=O)CO [Dexamethasone] | no effect | 9.3% | 4.1% | 4.4% | 13% | 12% | no effect | no effect |  |  |  |  | 
CC(C)(C(=O)c1cccnc1)c1cccnc1 [MET, Metyrapone] |  |  |  |  |  |  |  |  | 3.4% | 3% | no effect | 4% | Neither MET nor DEX had an effect

Reference: US20160296536A1, “Administration of Glucocorticoid Steroids to Livestock” (Animal Biotech, LLC, priority 2015, published 2016)
